Data as given in patent publication US6784203B1, “Cytokine production inhibitors” (Cubist Pharmaceuticals, Inc., priority 2001, dated 2004).

Legend:
[1] = tested on: TNF-α; experiment: TNF-α release from U937 cells (LPS-induced, DELFIA); type: cell-based; settings: Homo sapiens, U-937; for IC50: PMA-pretreated U937 cells, 1 ng/ml LPS, 18 hours, read-out: IC50 LPS-induced TNF production in U937 cells
Procedure: The effect of the compounds of the invention on TNF-α release was investigated using a known method (Lozanski, G. et al., (1992), J. Rheumatol; 19, 921-26).
The human histolytic lymphoma U937 cell line was obtained from a commercial source (ECACC, Salisbury, UK) and maintained in RPMI 1640 medium supplemented with 2 mM L-glutamine and 5% fetal bovine serum. The cells were pretreated with 25 ng/ml PMA for six hours and then exposed to dose ranges of the compound to be tested followed by the addition of 1 ng/ml LPS.
After 18 hours incubation at 37° C. with 5% CO2 the cell culture supernatants were harvested and stored at −70° C., until required for determination of TNF-α secretion by Dissociation Enhanced Lanthanide Fluorescence Immuno Assay (DELFIA). The effect of the compounds on cell cytotoxicity was measured using the tetrazolium salt, XTT (2,3-bis[2-methoxy-4-nitro-5-sulphophenyl]-2H-tetrazolium-5-carboxanilide salt) and effects on protein synthesis were determined by investigation of [^3H] Leucine uptake.

[2] = tested on: IL-1β; experiment: IL-1β release from human monocytes (LPS-induced, ELISA); type: cell-based; settings: Monocyte; for IC50: human monocytes, 1 ng/ml LPS, 18 hours, read-out: IC50 LPS-induced IL-β production (monocytes)
Excerpt: The effect of the compounds of the invention on IL-Iβ release was investigated using a known method (Bakouche, O. et al., (1992), J. Immunol: 148, 84-91). Human monocytes were purified by elutriation from Buffy coats obtained from normal healthy donors after the separation of peripheral blood mononuclear cells (PBMC) on Lymphoprep. The freshly isolated monocytes were suspended in RPMI 1640 supplemented with 5% FBS and exposed to dose ranges of the compound to be tested followed by the addition of 1 ng/ml LPS. Cells were incubated for 18 hours at 37° C. with 5% CO2 and the cell culture supernatants harvested and stored at −70° C. Effects on the production of IL-1β were determined using an ELISA.

Structure (SMILES) | IC50 [1] | inhibition at 0.01 µM ([1]; concentration 0.01 μM) | inhibition at 0.04 µM ([1]; concentration 0.04 μM) | inhibition at 0.17 µM ([1]; concentration 0.17 μM) | inhibition at 0.7 µM ([1]; concentration 0.7 μM) | inhibition at 2.8 µM ([1]; concentration 2.8 μM) | inhibition at 0.044 µM ([2]; Homo sapiens, concentration 0.044 μM) | inhibition at 0.22 µM ([2]; Homo sapiens, concentration 0.22 μM) | inhibition at 1.1 µM ([2]; Homo sapiens, concentration 1.1 μM) | inhibition at 5.5 µM ([2]; Homo sapiens, concentration 5.5 μM) | IC50 [2] | inhibition at 0.12 µM ([1]; concentration 0.12 μM) | inhibition at 0.5 µM ([1]; concentration 0.5 μM) | inhibition at 2 µM ([1]; concentration 2 μM) | inhibition at 8 µM ([1]; concentration 8 μM) | inhibition at 0.5 µM ([2]; Homo sapiens, concentration 0.5 μM) | inhibition at 2 µM ([2]; Homo sapiens, concentration 2 μM) | inhibition at 20 µM ([2]; Homo sapiens, concentration 20 μM)
C/C=C/[C@@H]1OC(=O)C=C[C@@H]1C(=O)/C=C/C(C)=C/[C@@H](C)CCCCCC [R in formula (I) is CH3, 3-((5S,6S)-5,6-dihydro-5-((6S)-4,6-dimethyldodeca-2E,4E-dienoyl)-2H-pyran-2-on-6-yl)-prop-2E-ene] | 0.08 µM | 0.85% | 20% | 61% | 90% | 99% | 23% | 41% | 72% | 88% | 0.19 µM |  |  |  |  |  |  | 
CCCCCC[C@H](C)/C=C(C)/C=C/C(=O)[C@H]1C=CC(=O)O[C@H]1/C=C/C(=O)O [R in formula (I) is CO2H, 3-((5S,6S)-5,6-dihydro-5-((6S)-4,6-dimethyldodeca-2E,4E-dienoyl)-2H-pyran-2-on-6-yl)-prop-2E-enoic acid] | 2 µM |  |  |  |  |  |  |  |  |  | 2 µM | 47% | 77% | 100% | 107% | 14% | 81.5% | 99%
